The results in this text go back to patent US10689421B2, “Bacteriocin-producing Paenibacillus ehimensis and application thereof” (National Pingtung University of Science and Technology, priority 2018, dated 2020).

One assay relates to P. ehimensis NPUST-1. As to the kind of experiment: Inhibition effect of aquacultural antibiotics against NPUST-1 strain (inhibitory zone). Set-up: inhibitory zone size: unit not given here. The assay is classed as cell-based, Paenibacillus ehimensis. The settings on record: TSB agar plate containing P. ehimensis NPUST-1; each antibiotic at its maximum concentration for aquaculture (Table 4). An excerpt: To find out competent antibiotics for combination with NPUST-1 bacterial strain used as a probiotic, inhibition effect of varies aquacultural antibiotics against NPUST-1 bacterial strain are examined. Detailed testing steps are described as below.
Following antibiotics are examined: amoxicillin, ampicillin, doxycycline, erythromycin, furazolidone, flumequine, ormetoprim, oxytetracycline, sulfadimethoxine, chloramphenicol, gentamycin and kanamycin. The antibiotics concentration (shown in table 4) being tested are the available maximum concentration conformed to the drug regulation for aquaculture. After all the antibiotics are prepared, use TSB agar plate containing P. ehimensis NPUST-1 to determine the antibacterial activity and measure the inhibitory zone of antibiotics.
`CC1(C)S[C@@H]2[C@H](NC(=O)[C@H](N)c3ccc(O)cc3)C(=O)N2[C@H]1C(=O)O` [Amoxicillin, amoxicillin]: the inhibitory zone size is recorded as 2.30 ± 0.10.
As to `O=C(N[C@H](CO)[C@H](O)c1ccc([N+](=O)[O-])cc1)C(Cl)Cl` [Chloramphenicol, chloramphenicol], the inhibitory zone size worked out at 2.67 ± 0.06.
For `C[C@H]1c2cccc(O)c2C(=O)C2=C(O)[C@]3(O)C(=O)C(C(N)=O)=C(O)[C@@H](N(C)C)[C@@H]3[C@@H](O)[C@@H]21` [Doxycycline, doxycycline], the inhibitory zone size is 3.30 ± 0.00.
Consider `CC[C@H]1OC(=O)[C@H](C)[C@@H](O[C@H]2C[C@@](C)(OC)[C@@H](O)[C@H](C)O2)[C@H](C)[C@@H](O[C@@H]2O[C@H](C)C[C@H](N(C)C)[C@H]2O)[C@](C)(O)C[C@@H](C)C(=O)[C@H](C)[C@@H](O)[C@]1(C)O` [Erythromycin, erythromycin], for which the inhibitory zone size was 1.73 ± 0.06.
In the case of `CC1CCc2cc(F)cc3c(=O)c(C(=O)O)cn1c23` (centres unmarked) [Flumequine, flumequine], the inhibitory zone size was 5.67 ± 0.06.
As for `O=C1OCCN1/N=C/c1ccc([N+](=O)[O-])o1` [Furazolidone, furazolidone], the inhibitory zone size is listed as 1.00 ± 0.00.
For the compound `NC[C@H]1O[C@H](O[C@H]2[C@H](O)[C@@H](O[C@H]3O[C@H](CO)[C@@H](O)[C@H](N)[C@H]3O)[C@H](N)C[C@@H]2N)[C@H](O)[C@@H](O)[C@@H]1O` [Kanamycin, kanamycin], the inhibitory zone size was 1.13 ± 0.03.
`COc1cc(C)c(Cc2cnc(N)nc2N)cc1OC` [Ormetoprim, ormetoprim]: the inhibitory zone size is 4.60 ± 0.00.
In the case of `CN(C)[C@@H]1C(O)=C(C(N)=O)C(=O)[C@@]2(O)C(O)=C3C(=O)c4c(O)cccc4[C@@](C)(O)[C@H]3[C@H](O)[C@@H]12` [Oxytetracycline, oxytetracycline], the inhibitory zone size is recorded as 2.13 ± 0.06.
For gentamycin, the inhibitory zone size stood at 2.03 ± 2.03.

Still in this assay, the particulars now being: in words.
On to `CC1(C)S[C@@H]2[C@H](NC(=O)[C@H](N)c3ccccc3)C(=O)N2[C@H]1C(=O)O` [Ampiciliin, ampicillin], for which the “resistance of the strain NPUST-1 against the antibiotic” value is “resistance”.
Consider `Cc1ccnc(NS(=O)(=O)c2ccc(N)cc2)n1` [sulfamerazine], for which the “resistance of the strain NPUST-1 against the antibiotic” value is on record as “resistance”.

The assay is the same for the next values; noted with them: in words; antibiotic at maximum concentration for aquaculture.
Turning to `CC1(C)S[C@@H]2[C@H](NC(=O)[C@H](N)c3ccccc3)C(=O)N2[C@H]1C(=O)O` [Ampiciliin, ampicillin], the “inhibition effect against P. ehimensis NPUST-1” value is “no inhibition effect”.
For `COc1cc(NS(=O)(=O)c2ccc(N)cc2)nc(OC)n1` [Sulfadimethoxine, sulfadimethoxine], the “inhibition effect against P. ehimensis NPUST-1” value is listed as “no inhibition effect”.
